The source made the active and inactive calls. The calls are words filed in the database; no cut-off is given here.
What was measured:
Rattus norvegicus [1] = experiment: Antiosteoporotic activity in glucocorticoid-induced Wistar rat osteoporosis model assessed as increase in trabecula number at 0.05 ug/kg/day, po administered six times a week for 3 months by toluidine blue staining-based light microscopic analysis relative to dexamethasone; assay type: functional, organism-based
Rattus norvegicus [2] = experiment: Antiosteoporotic activity in glucocorticoid-induced Wistar rat osteoporosis model assessed as increase in trabecula thickness at 0.05 ug/kg/day, po administered six times a week for 3 months by toluidine blue staining-based light microscopic analysis relative to dexamethasone; assay type: functional, organism-based
Rattus norvegicus [3] = experiment: Antiosteoporotic activity in glucocorticoid-induced Wistar rat osteoporosis model assessed as increase in trabecula area at 0.05 ug/kg/day, po administered six times a week for 3 months by toluidine blue staining-based light microscopic analysis relative to dexamethasone; assay type: functional, organism-based
Rattus norvegicus [4] = experiment: Antiosteoporotic activity in glucocorticoid-induced Wistar rat osteoporosis model assessed as increase in trabecula connectivity at 0.05 ug/kg/day, po administered six times a week for 3 months by toluidine blue staining-based light microscopic analysis relative to dexamethasone; assay type: functional, organism-based
Rattus norvegicus [5] = experiment: Toxicity in glucocorticoid-induced Wistar rat osteoporosis model assessed as white blood cells at 0.05 ug/kg/day, po administered six times a week for 3 months (reference value: 6.28 +/- 2.78 x 10^9/L); assay type: organism-based; details: in vivo, 5e-05 mg/kg
Rattus norvegicus [6] = experiment: Toxicity in glucocorticoid-induced Wistar rat osteoporosis model assessed as lymph level at 0.05 ug/kg/day, po administered six times a week for 3 months (reference value: 50.35 +/- 12.96%); assay type: organism-based; details: in vivo, 5e-05 mg/kg
Rattus norvegicus [7] = experiment: Toxicity in glucocorticoid-induced Wistar rat osteoporosis model assessed as neutrophilic granulocytes level at 0.05 ug/kg/day, po administered six times a week for 3 months (reference value: 31.95 +/- 8.33%); assay type: organism-based; details: in vivo, 5e-05 mg/kg
Rattus norvegicus [8] = experiment: Toxicity in glucocorticoid-induced Wistar rat osteoporosis model assessed as aspartate transaminase level at 0.05 ug/kg/day, po administered six times a week for 3 months (reference value: 177.55 +/- 116.98 U/L); assay type: organism-based; details: in vivo, 5e-05 mg/kg
Rattus norvegicus [9] = experiment: Toxicity in glucocorticoid-induced Wistar rat osteoporosis model assessed as alanine transaminase level at 0.05 ug/kg/day, po administered six times a week for 3 months (reference value: 43.73 +/- 36.21 U/L); assay type: organism-based; details: in vivo, 5e-05 mg/kg
Rattus norvegicus [10] = experiment: Toxicity in glucocorticoid-induced Wistar rat osteoporosis model assessed as triglycerides level at 0.05 ug/kg/day, po administered six times a week for 3 months (reference value: 1.13 +/- 0.69 mmol/L); assay type: organism-based; details: in vivo, 5e-05 mg/kg
Rattus norvegicus [11] = experiment: Antiosteoporotic activity in glucocorticoid-induced Wistar rat osteoporosis model assessed as trabecular bone volume at 0.05 ug/kg/day, po administered six times a week for 3 months by fluorescence assay (reference value: 33.09 +/- 5.15%); assay type: functional, Trabecula
Rattus norvegicus [12] = experiment: Antiosteoporotic activity in glucocorticoid-induced Wistar rat osteoporosis model assessed as trabecula formation surface at 0.05 ug/kg/day, po administered six times a week for 3 months by fluorescence assay (reference value: 7.82 +/- 2.46%); assay type: functional
Rattus norvegicus [13] = experiment: Antiosteoporotic activity in glucocorticoid-induced Wistar rat osteoporosis model assessed as trabecula resorption surface at 0.05 ug/kg/day, po administered six times a week for 3 months by fluorescence assay (reference value: 7.22 +/- 2.04%); assay type: functional
Rattus norvegicus [14] = experiment: Antiosteoporotic activity in glucocorticoid-induced Wistar rat osteoporosis model assessed as mineral apposition rate at 0.05 ug/kg/day, po administered six times a week for 3 months by fluorescence assay (reference value: 1.06 +/- 0.27 micrometer/day); assay type: functional

How did the Activity (Rattus norvegicus [1]) turn out when `C=C1/C(=C\C=C2/CCC[C@]3(C)[C@@H]([C@H](C)CCCC(C)C)CC[C@@H]23)C[C@@H](O)C[C@@H]1O` [ALFACALCIDOL] was run?
Its Activity is “Active”.

And the Activity (Rattus norvegicus [2])?
Its Activity is “Active”.

What about the Activity (Rattus norvegicus [3]) of the same compound?
The Activity was “Active”.

What about the Activity (Rattus norvegicus [4]) of the same compound?
The Activity was “Active”.

What about the Activity (Rattus norvegicus [5]) of the same compound?
The Activity was 3.42 ×10⁹ /L.

What about the Activity (Rattus norvegicus [6]) of the same compound?
The Activity was 34.83%.

What about the Activity (Rattus norvegicus [7]) of the same compound?
The Activity was 48.13%.

What about the Activity (Rattus norvegicus [8]) of the same compound?
Its Activity is 109.73 U/L.

What about the Activity (Rattus norvegicus [9]) of the same compound?
The Activity was 30.64 U/L.

What about the Activity (Rattus norvegicus [10]) of the same compound?
Its Activity is 0.51 mmol/L.

And the Activity (Rattus norvegicus [11])?
The Activity was 28.54%.

And the Activity (Rattus norvegicus [12])?
Its Activity is 6.72%.

What about the Activity (Rattus norvegicus [13]) of the same compound?
The Activity was 8.15%.

And the Activity (Rattus norvegicus [14])?
The Activity was 1.05 micrometer/day.

Reference: ChEMBL document CHEMBL3414511, “Synthesis of a novel class of substituted benzothiophene or benzofuran derivatives as BMP-2 up-regulators and evaluation of the BMP-2-up-regulating effects in vitro and the effects on glucocorticoid-induced osteoporosis in rats” (Eur J Med Chem, 2015)
